Laboratory results published in PMC10077450 (ACS Omega, 2023).
Entries after “also recorded” stand apart in the source; their conditions may differ. Marks after values point to notes of the source that are not given here.

Columns and labels:
[1] = target: α-glucosidase (Saccharomyces cerevisiae, UniProt P53341); conditions: for activity against α-glucosidase enzyme (in words): compared with acarbose
[2] = target: butyryl cholinesterase (BChE) (Homo sapiens, UniProt P06276); assay: butyryl cholinesterase inhibition assay; assay type: biochemical; conditions: for inhibition at 500 µM: read-out: BChE inhibition (%) at 0.5 mM; for activity against BChE enzyme (in words): compared with eserine
butyryl cholinesterase (BChE), sequence (P06276 29-602, species assumed): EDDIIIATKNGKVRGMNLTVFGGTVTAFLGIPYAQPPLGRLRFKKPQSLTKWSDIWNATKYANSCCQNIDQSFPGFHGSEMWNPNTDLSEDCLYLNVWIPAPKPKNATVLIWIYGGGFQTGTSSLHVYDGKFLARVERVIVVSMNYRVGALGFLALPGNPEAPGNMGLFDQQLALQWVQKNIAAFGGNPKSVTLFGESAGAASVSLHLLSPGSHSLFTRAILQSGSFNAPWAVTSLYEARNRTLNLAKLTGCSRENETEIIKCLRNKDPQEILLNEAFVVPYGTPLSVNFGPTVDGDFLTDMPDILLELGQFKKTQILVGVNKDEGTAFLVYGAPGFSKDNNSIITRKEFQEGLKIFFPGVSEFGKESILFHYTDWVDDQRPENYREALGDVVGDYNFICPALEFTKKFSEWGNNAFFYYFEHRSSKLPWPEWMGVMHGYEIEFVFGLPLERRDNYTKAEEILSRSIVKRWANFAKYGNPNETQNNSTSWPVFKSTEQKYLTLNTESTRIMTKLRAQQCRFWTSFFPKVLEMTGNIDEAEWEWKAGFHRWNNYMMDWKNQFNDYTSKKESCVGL

α-glucosidase, sequence (P53341 whole entry): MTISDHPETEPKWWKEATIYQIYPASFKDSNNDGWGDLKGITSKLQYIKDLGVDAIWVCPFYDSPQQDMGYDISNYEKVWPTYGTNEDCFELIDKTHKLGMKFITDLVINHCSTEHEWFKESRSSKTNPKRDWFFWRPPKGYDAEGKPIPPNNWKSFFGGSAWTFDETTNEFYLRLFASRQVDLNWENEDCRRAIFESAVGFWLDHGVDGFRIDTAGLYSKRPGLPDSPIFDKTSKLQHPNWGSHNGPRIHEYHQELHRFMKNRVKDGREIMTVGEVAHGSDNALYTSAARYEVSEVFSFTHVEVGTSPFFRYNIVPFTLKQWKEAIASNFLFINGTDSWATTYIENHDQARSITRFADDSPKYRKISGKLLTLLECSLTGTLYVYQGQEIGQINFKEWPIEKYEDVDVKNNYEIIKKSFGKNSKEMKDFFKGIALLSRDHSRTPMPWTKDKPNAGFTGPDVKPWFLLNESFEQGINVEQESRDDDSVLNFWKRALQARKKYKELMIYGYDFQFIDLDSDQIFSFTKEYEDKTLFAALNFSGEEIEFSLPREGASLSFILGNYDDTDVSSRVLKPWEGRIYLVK

α-glucosidase inhibition (%) at 0.5 mM ([1]; 0.5 mM, mean ± SEM, triplicate) | Structure (SMILES) | inhibition at 500 µM [2] [%] | IC50 [2] [µM] | activity against BChE enzyme (in words) [2] | activity against α-glucosidase enzyme (in words) [1]
92.23±0.14^a % | C[C@H]1O[C@H](O[C@H]2[C@H](O)[C@@H](O)[C@@H](O[C@H]3[C@H](O)[C@@H](O)C(O)O[C@@H]3CO)O[C@@H]2CO)[C@H](O)[C@@H](O)[C@@H]1N[C@H]1C=C(CO)[C@@H](O)[C@H](O)[C@H]1O (stereo partly shown) [acarbose, reference compound] | – | – | – | –
– | CCc1cccc(C)c1NC(=O)CSc1nnc(C2CCCN(S(=O)(=O)c3ccccc3)C2)o1 (stereo not shown) [7o, N-(2-Ethyl-6-methylphenyl)-2-{5-[1-(phenylsulfonyl)piperidin-3-yl]-1,3,4-oxadiazol-2-ylthio}acetamide] | 38.31 ± 0.29 | – | – | –
– | CCc1ccc(NC(=O)CSc2nnc(C3CCCN(S(=O)(=O)c4ccccc4)C3)o2)cc1 (stereo not shown) [7l, N-(4-Ethylphenyl)-2-{5-[1-(phenylsulfonyl)piperidin-3-yl]-1,3,4-oxadiazol-2-ylthio}acetamide] | 93.71 ± 0.28 | 274.6 ± 0.13 | least active; also recorded: BChE inhibitors | –
– | Cc1cccc([N+](=O)[O-])c1NC(=O)CSc1nnc(C2CCCN(S(=O)(=O)c3ccccc3)C2)o1 (stereo not shown) [7s, N-(2-Methyl-6-nitrophenyl)-2-{5-[1-(phenylsulfonyl)piperidin-3-yl]-1,3,4-oxadiazol-2-ylthio}acetamide] | 67.19 ± 0.39 | 123.3 ± 0.15 | moderately high inhibition potential | –
– | Cc1cccc(C)c1NC(=O)CSc1nnc(C2CCCN(S(=O)(=O)c3ccccc3)C2)o1 (stereo not shown) [7d, N-(2,6-Dimethylphenyl)-2-{5-[1-(phenylsulfonyl)piperidin-3-yl]-1,3,4-oxadiazol-2-ylthio}acetamide] | 48.51 ± 0.15 | – | – | least activity
– | Cc1ccccc1NC(=O)CSc1nnc(C2CCCN(S(=O)(=O)c3ccccc3)C2)o1 (stereo not shown) [7f, 2-{5-[1-(Phenylsulfonyl)piperidin-3-yl]-1,3,4-oxadiazol-2-ylthio}-N-o-tolylacetamide] | 47.23 ± 0.14 | – | – | –
– | Cc1ccc(NC(=O)CSc2nnc(C3CCCN(S(=O)(=O)c4ccccc4)C3)o2)cc1 (stereo not shown) [7g, 2-{5-[1-(Phenylsulfonyl)piperidin-3-yl]-1,3,4-oxadiazol-2-ylthio}-N-p-tolylacetamide] | 46.75 ± 0.18 | – | – | –
– | Cc1ccc(NC(=O)CSc2nnc(C3CCCN(S(=O)(=O)c4ccccc4)C3)o2)c(C)c1 (stereo not shown) [7b, N-(2,4-Dimethylphenyl)-2-{5-[1-(phenylsulfonyl)piperidin-3-yl]-1,3,4-oxadiazol-2-ylthio}acetamide] | 76.51 ± 0.44 | 283.3 ± 0.17 | least active; also recorded: BChE inhibitors | –
– | Cc1ccc(C)c(NC(=O)CSc2nnc(C3CCCN(S(=O)(=O)c4ccccc4)C3)o2)c1 (stereo not shown) [7c, N-(2,5-Dimethylphenyl)-2-{5-[1-(phenylsulfonyl)piperidin-3-yl]-1,3,4-oxadiazol-2-ylthio}acetamide] | 40.76 ± 0.27 | – | – | –
– | Cc1cc(C)cc(NC(=O)CSc2nnc(C3CCCN(S(=O)(=O)c4ccccc4)C3)o2)c1 (stereo not shown) [7e, N-(3,5-Dimethylphenyl)-2-{5-[1-(phenylsulfonyl)piperidin-3-yl]-1,3,4-oxadiazol-2-ylthio}acetamide] | 66.82 ± 0.32 | 375.4 ± 0.12 | least active; also recorded: BChE inhibitors | most active; also recorded: comparable activity to that of reference
– | COc1ccc(Cl)cc1NC(=O)CSc1nnc(C2CCCN(S(=O)(=O)c3ccccc3)C2)o1 (stereo not shown) [7i, N-(5-Chloro-2-methoxyphenyl)-2-{5-[1-(phenylsulfonyl)piperidin-3-yl]-1,3,4-oxadiazol-2-ylthio}acetamide] | 38.81 ± 0.17 | – | – | second most active
– | O=C(CSc1nnc(C2CCCN(S(=O)(=O)c3ccccc3)C2)o1)NCCc1ccccc1 (stereo not shown) [7j, N-Phenethyl-2-{5-[1-(phenylsulfonyl)piperidin-3-yl]-1,3,4-oxadiazol-2-ylthio}acetamide] | 97.93 ± 0.38 | 12.15 ± 0.09 | highest inhibition potential; also recorded: most active | –
– | Cc1cccc(NC(=O)CSc2nnc(C3CCCN(S(=O)(=O)c4ccccc4)C3)o2)c1C (stereo not shown) [7a, N-(2,3-Dimethylphenyl)-2-{5-[1-(phenylsulfonyl)piperidin-3-yl]-1,3,4-oxadiazol-2-ylthio}acetamide] | 75.32 ± 0.35 | 284.5 ± 0.13 | least active; also recorded: BChE inhibitors | –
– | O=C(CSc1nnc(C2CCCN(S(=O)(=O)c3ccccc3)C2)o1)NC1CCCCC1 (stereo not shown) [7p, N-Cyclohexyl-2-{5-[1-(phenylsulfonyl)piperidin-3-yl]-1,3,4-oxadiazol-2-ylthio}acetamide] | 26.5 ± 0.39 | – | – | least activity
– | O=C(CSc1nnc(C2CCCN(S(=O)(=O)c3ccccc3)C2)o1)NCc1ccccc1 (stereo not shown) [7r, N-Benzyl-2-{5-[1-(phenylsulfonyl)piperidin-3-yl]-1,3,4-oxadiazol-2-ylthio}acetamide] | 37.7 ± 0.48 | – | – | least activity
– | CCOc1ccc(NC(=O)CSc2nnc(C3CCCN(S(=O)(=O)c4ccccc4)C3)o2)cc1 (stereo not shown) [7m, N-(4-Ethoxyphenyl)-2-{5-[1-(phenylsulfonyl)piperidin-3-yl]-1,3,4-oxadiazol-2-ylthio}acetamide] | 72.41 ± 0.17 | 328.1 ± 0.18 | least active; also recorded: BChE inhibitors | –
– | COC(=O)c1ccccc1NC(=O)CSc1nnc(C2CCCN(S(=O)(=O)c3ccccc3)C2)o1 (stereo not shown) [7h, Methyl 2-(2-(5-(1-(Phenylsulfonyl)piperidin-3-yl)-1,3,4-oxadiazol-2-ylthio)acetamido)benzoate] | 35.52 ± 0.23 | – | – | –
– | CCc1ccccc1NC(=O)CSc1nnc(C2CCCN(S(=O)(=O)c3ccccc3)C2)o1 (stereo not shown) [7k, N-(2-Ethylphenyl)-2-{5-[1-(phenylsulfonyl)piperidin-3-yl]-1,3,4-oxadiazol-2-ylthio}acetamide] | 44.24 ± 0.32 | – | – | least activity
– | COc1ccccc1NC(=O)CSc1nnc(C2CCCN(S(=O)(=O)c3ccccc3)C2)o1 (stereo not shown) [7q, N-(2-Methoxyphenyl)-2-{5-[1-(phenylsulfonyl)piperidin-3-yl]-1,3,4-oxadiazol-2-ylthio}acetamide] | 36.32 ± 0.16 | – | – | –
– | CCOc1ccccc1NC(=O)CSc1nnc(C2CCCN(S(=O)(=O)c3ccccc3)C2)o1 (stereo not shown) [7n, N-(2-Ethoxyphenyl)-2-{5-[1-(phenylsulfonyl)piperidin-3-yl]-1,3,4-oxadiazol-2-ylthio}acetamide] | 43.72 ± 0.15 | – | – | –
